Assay results as given in patent US20220088020A1, “TREATMENT OF ALOPECIA AREATA” (LEO PHARMA A/S, priority 2015, published 2022).

Tests used:
[1] = system: C3H/HeJ mouse alopecia model; assay: Experiment 2: promotion of hair growth in C3H/HeJ mouse alopecia model; type: in vivo; settings: Compound A ointment 0.3% or 3% by weight, 50 μL applied to dorsal region once a day for 84 days; median of each group, FIG. 2
Experimental: (§1) An effect of promoting hair growth by Compound A was evaluated using a C3H/HeJ mouse alopecia model (Non-Patent Literature 1).
A skin specimen having a diameter of 2 cm was prepared from a retired C3H/HeJJcI mouse (CLEA Japan, Inc.) which had spontaneously developed alopecia universalis, and was grafted into a dorsal region of each of eight-week-old female C3H/HeJJcI mice (CLEA Japan, Inc.). […]
The Hair Growth Index (HGI) in the dorsal region of each of the mice was determined on day 1, day 19, day 29, day 43, day 57, day 71 and day 85. The HGI for each of the mice was calculated by measuring, with naked eyes, the level of the state of hair growth (score; 0: no hair, 1: stubble, short broken hairs, 2: sparse intermediate length hairs, 3: normal length and density hairs) and the percentage (%) of the skin area in which each level of state of hair growth occurred, determining the product of the level of the state of hair growth (score) with the percentage (%) of the skin area in which its level of the state of hair growth occurred, and then summing all of the values of the products.

[2] = system: C3H/HeJ mouse alopecia model; assay: Experiment 1: promotion of hair growth in C3H/HeJ mouse alopecia model; type: in vivo; settings: Compound A 1% or 3% by weight in carrier, 50 μL applied to dorsal region once a day for 78 days; median of each group, FIG. 1
Experimental: as §1
A skin specimen having a diameter of 2 to 2.5 cm was prepared from a retired C3H/HeJJcI mouse (CLEA Japan, Inc.) which had spontaneously developed alopecia universalis, and was grafted into a dorsal region of each of eight-week-old female C3H/HeJJcI mice (CLEA Japan, Inc.). Twenty weeks after the surgery, mice which developed alopecia throughout the whole bodies thereof were selected, and a carrier, 1% by weight of a test substance, 3% by weight of the test substance or a control substance was applied to the dorsal region at a volume of 50 μL once a day for 78 days. Day 1 was a day on which the application started. The carrier used was a mixture which contained white soft paraffin, hard paraffin and squalane at a blend ratio of 85:5:10. Compound A was used as the test substance. A betamethasone valerate ointment (0.12%) was used as the control substance.
The Hair Growth Index (HGI) in the dorsal region of each of the mice was determined on day 1, day 7, day 15, day 29, day 43, day 57, day 71 and day 79. […]

[3] = system: JAK; settings: JAK = one or more of JAK1, JAK2, JAK3, TYK2; described in Patent Literature 1 and 2; cited from earlier work

Question: For `C[C@H]1CN(C(=O)CC#N)[C@]12CCN(c1ncnc3[nH]ccc13)C2` [Compound A, 3-[(3S,4R)-3-methyl-6-(7H-pyrrolo[2,3-d]pyrimidin-4-yl)-1,6-diazaspiro[3.4]octan-1-yl]-3-oxopropanenitrile], which “Hair Growth Index (HGI) in the dorsal region” value [1] is on record?
Answer: promotion of hair growth

Question: What about the “Hair Growth Index (HGI) in the dorsal region” value [2] of the same compound?
Answer: promotion of hair growth

Question: And the JAK inhibition [3]?
Answer: inhibit JAK
